How the values were obtained:
Experiment in all cases: relative viability (nuclei count vs DMSO), 5 days (fraction); higher = more cells survive
Elesclomol + Decitabine = compound: CN(NC(=O)CC(=O)NN(C)C(=S)c1ccccc1)C(=S)c1ccccc1 [Elesclomol] + Nc1ncn([C@H]2C[C@H](O)[C@@H](CO)O2)c(=O)n1 [Decitabine] (partner 2 µM)
How it was run: (§1)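 Lung cancer cell lines were pin-tool dosed in 1536-well plates on the day after seeding, with either a lone drug or a fixed anchor-drug dose plus five library-drug doses (not always all listed) in √10 steps. Nuclei were counted on 4× images after 5 days. Relative viability is the ratio of treated-well to vehicle-well nuclei counts, with each value a median of duplicate plates.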

Elesclomol + Foretinib = compound: CN(NC(=O)CC(=O)NN(C)C(=S)c1ccccc1)C(=S)c1ccccc1 [Elesclomol] + COc1cc2c(Oc3ccc(NC(=O)C4(C(=O)Nc5ccc(F)cc5)CC4)cc3F)ccnc2cc1OCCCN1CCOCC1 [Foretinib] (partner 0.25 µM)
How it was run: as §1

Elesclomol + Dasatinib = compound: CN(NC(=O)CC(=O)NN(C)C(=S)c1ccccc1)C(=S)c1ccccc1 [Elesclomol] + Cc1nc(Nc2ncc(C(=O)Nc3c(C)cccc3Cl)s2)cc(N2CCN(CCO)CC2)n1 [Dasatinib] (partner 0.075 µM)
How it was run: as §1

Elesclomol + Tozasertib = compound: CN(NC(=O)CC(=O)NN(C)C(=S)c1ccccc1)C(=S)c1ccccc1 [Elesclomol] + Cc1cc(Nc2cc(N3CCN(C)CC3)nc(Sc3ccc(NC(=O)C4CC4)cc3)n2)n[nH]1 [Tozasertib] (partner 0.1 µM)
How it was run: as §1

Elesclomol + Navitoclax = compound: CN(NC(=O)CC(=O)NN(C)C(=S)c1ccccc1)C(=S)c1ccccc1 [Elesclomol] + CC1(C)CCC(c2ccc(Cl)cc2)=C(CN2CCN(c3ccc(C(=O)NS(=O)(=O)c4ccc(N[C@H](CCN5CCOCC5)CSc5ccccc5)c(S(=O)(=O)C(F)(F)F)c4)cc3)CC2)C1 [Navitoclax] (partner 0.5 µM)
How it was run: as §1

Row | Cell Line | relative viability (Elesclomol + Decitabine; first compound 0.003162 µM) | relative viability (Elesclomol + Decitabine; first compound 0.01 µM) | relative viability (Elesclomol + Decitabine; first compound 0.03162 µM) | relative viability (Elesclomol + Decitabine; first compound 0.1 µM) | relative viability (Elesclomol + Foretinib; first compound 0.003162 µM) | relative viability (Elesclomol + Foretinib; first compound 0.01 µM) | relative viability (Elesclomol + Foretinib; first compound 0.03162 µM) | relative viability (Elesclomol + Foretinib; first compound 0.1 µM) | relative viability (Elesclomol + Dasatinib; first compound 0.003162 µM) | relative viability (Elesclomol + Dasatinib; first compound 0.01 µM) | relative viability (Elesclomol + Dasatinib; first compound 0.03162 µM) | relative viability (Elesclomol + Dasatinib; first compound 0.1 µM) | relative viability (Elesclomol + Tozasertib; first compound 0.003162 µM) | relative viability (Elesclomol + Tozasertib; first compound 0.01 µM) | relative viability (Elesclomol + Tozasertib; first compound 0.03162 µM) | relative viability (Elesclomol + Tozasertib; first compound 0.1 µM) | relative viability (Elesclomol + Navitoclax; first compound 0.003162 µM) | relative viability (Elesclomol + Navitoclax; first compound 0.01 µM) | relative viability (Elesclomol + Navitoclax; first compound 0.03162 µM) | relative viability (Elesclomol + Navitoclax; first compound 0.1 µM)
1 | 201T | 0.869 | 0.844 | 0.818 | 0.854 | 0.945 | 0.671 | 0.265 | 0.265 | 0.535 | 0.587 | 0.543 | 0.236 | 0.984 | 0.88 | 0.911 | 0.536 | 1.16 | 1.16 | 1.23 | 1.16
2 | A549 | 0.293 | 0.22 | 0.261 | 0.133 | 0.886 | 0.504 | 0.0597 | 0.0242 | – | – | – | – | – | – | – | – | 0.798 | 0.181 | 0.0437 | 0.03
3 | A-427 | 0.601 | 0.453 | 0.285 | 0.194 | 0.981 | 0.956 | 0.917 | 0.157 | 0.661 | 0.582 | 0.358 | 0.127 | 0.226 | 0.186 | 0.149 | 0.0996 | 0.904 | 0.827 | 1 | 0.499
4 | ABC-1 | 0.409 | 0.345 | 0.318 | 0.279 | 0.255 | 0.221 | 0.259 | 0.215 | 0.173 | 0.233 | 0.207 | 0.193 | 0.193 | 0.203 | 0.18 | 0.187 | – | – | – | –
5 | BEN | 0.677 | 0.483 | 0.419 | 0.333 | 0.493 | 0.467 | 0.296 | 0.265 | 0.359 | 0.204 | 0.219 | 0.159 | 0.592 | 0.399 | 0.45 | 0.402 | 0.049 | 0.0566 | 0.0364 | 0.0268
6 | CAL-12T | – | – | – | – | 1.04 | 1.16 | 0.263 | 0.144 | 0.282 | 0.117 | 0.0442 | 0.0555 | 0.268 | 0.17 | 0.0901 | 0.0485 | 1 | 0.243 | 0.123 | 0.0625
7 | COR-L23 | 0.439 | 0.347 | 0.282 | 0.163 | 0.977 | 0.667 | 0.418 | 0.198 | 0.439 | 0.254 | 0.141 | 0.068 | 0.234 | 0.155 | 0.15 | 0.0966 | 0.9 | 0.616 | 0.461 | 0.0852
8 | COR-L 105 | 0.666 | 0.465 | 0.337 | 0.303 | 0.985 | 0.698 | 0.44 | 0.176 | 0.303 | 0.248 | 0.21 | 0.079 | 0.385 | 0.285 | 0.223 | 0.142 | 0.682 | 0.427 | 0.421 | 0.236
9 | ChaGo-K-1 | 0.531 | 0.473 | 0.415 | 0.163 | 0.838 | 0.95 | 0.34 | 0.186 | 0.609 | 0.458 | 0.214 | 0.116 | 0.223 | 0.177 | 0.147 | 0.163 | 0.739 | 0.374 | 0.258 | 0.221
10 | EKVX | 0.395 | 0.222 | 0.148 | 0.132 | 0.779 | 0.736 | 0.398 | 0.189 | 0.474 | 0.315 | 0.226 | 0.202 | 0.343 | 0.281 | 0.199 | 0.141 | 0.875 | 0.658 | 0.289 | 0.205
11 | EMC-BAC-2 | 0.933 | 0.804 | – | 0.408 | 1.1 | 0.877 | 0.784 | 0.392 | 0.361 | 0.28 | 0.286 | 0.138 | 0.307 | 0.265 | 0.275 | 0.213 | 1.2 | 1.06 | 1.06 | 0.604
12 | EPLC-272H | 0.35 | 0.134 | 0.0913 | 0.103 | 0.67 | – | 0.672 | 0.0988 | 0.397 | – | 0.405 | 0.059 | 0.223 | – | 0.331 | 0.101 | 1.1 | – | 1.03 | 0.164
13 | H3255 | 0.617 | 0.486 | 0.296 | 0.243 | 0.765 | 0.884 | 0.57 | 0.398 | 0.387 | 0.396 | 0.274 | 0.222 | 0.569 | 0.525 | 0.405 | 0.364 | 0.629 | 0.457 | 0.171 | 0.128
14 | HARA | 0.562 | 0.584 | 0.271 | 0.158 | 0.875 | 0.878 | 0.691 | 0.238 | 0.244 | 0.312 | 0.283 | 0.0991 | 0.155 | 0.108 | 0.0878 | 0.0669 | 1.16 | 1.17 | 0.884 | 0.267
15 | HCC-15 | 0.623 | 0.478 | 0.343 | 0.206 | 0.946 | 0.857 | 0.355 | 0.171 | 0.533 | 0.386 | 0.169 | 0.0668 | 0.358 | 0.292 | 0.204 | 0.159 | 0.73 | 0.656 | 0.439 | 0.373
16 | HCC-44 | 0.913 | 0.941 | 0.952 | 0.94 | – | – | – | – | – | – | – | – | 0.897 | 0.794 | 0.17 | 0.194 | 0.941 | 0.993 | 0.987 | 0.538
17 | HCC-78 | 0.727 | 0.674 | 0.701 | 0.564 | 0.516 | 0.574 | 0.548 | 0.583 | 0.28 | 0.407 | 0.319 | 0.34 | 0.378 | 0.426 | 0.399 | 0.483 | 0.778 | 0.755 | 0.793 | 0.627
